# Data from patent US7060671B1, “Peptides containing N-substituted D-amino acids for preventing β-strand association” (Senexis Limited, priority 1999, dated 2006).
# “And” between values parts separate entries of the source, which are not always exact repeats. Equal values may be shown once. “Also recorded” adds a separate entry of the source. Square brackets hold non-standard residues; d marks the D form. Peptide text beside a SMILES is read from it. dNMeL = CN[C@H](CC(C)C)C(=O)O
# What was measured:
# [1] = solubility in aqueous solutions; assay type: physicochemical; conditions: over a wide range of pH values
# From the text: The two positively charged arginine side chains assist the peptide to penetrate cell membranes and the blood-brain barrier by making electrostatic interactions with the negatively charged phosphate head groups of their constituent phospholipid molecules, resulting in the formation of inverted micelles which carry the peptide molecules across these membranes.
# [2] = target: T1, synthetic peptide fragment corresponding to residues 11 to 25 of the Alzheimer's Aβ peptide (Homo sapiens, UniProt P05067); experiment: thioflavin T fluorescence assay of Aβ peptide fragment aggregation into amyloid fibrils; assay type: biochemical
# T1 construct: residues 11 to 25 of the Alzheimer's Aβ peptide
# Protocol: Peptide X (SEQ ID NO: 2) was dissolved in water to a concentration of 10 mM (about 10 mg/ml). […]
# [3] = target: T2, Alzheimer's Aβ peptide fragment (Homo sapiens, UniProt P05067); experiment: electron microscopy of Aβ peptide fragment aggregation; assay type: biochemical; conditions: 500 mM (so in the source) Peptide X, FIGS. 6 and 7
# T2 construct: residues 11 to 25 of the Alzheimer's Aβ peptide
# Protocol: Peptide X (SEQ ID NO: 2) was dissolved in water to a concentration of 10 mM (about 10 mg/ml). Alzheimer's Aβ peptide fragment, at a concentration of 50/M (about 0.1 mg/ml) in 50 mM sodium acetate buffer (pH 5.0), was incubated at 25° C. in the absence or presence of Peptide X (SEQ ID NO: 2) at concentrations ranging from 100 μM to 1 mM; the aggregation of the Aβ peptide fragment into insoluble β-fibres in the solutions was determined quantitatively after 20 minutes by measuring the fluorescence of 1%M added thioflavin T at 482 nm using an excitation wavelength of 440 nm. […] aliquots of these solutions were then analysed by electron microscopy to confirm that Peptide X (SEQ ID NO: 2) had inhibited and/or reversed the aggregation of the Alzheimer's Aβ peptide fragment into insoluble β-fibres.
compound,measurement,setting,value
"CC(=O)N[C@H](CC(C)C)C(=O)N(C)[C@H](CC(C)C)C(=O)N[C@H](CC(C)C)C(=O)N(C)[C@H](CC(C)C)C(=O)N[C@H](CCCNC(=N)N)C(=O)N[C@H](CCCNC(=N)N)C(N)=O [Peptide X, Nα-acetyl-(D-leucine)-(Nα-methyl-D-leucine)-(D-leucine)-(Nα-methyl-D-leucine)-(D-arginine)-(D-arginine)-NH2] (Ac-[dL][dNMeL][dL][dNMeL][dR][dR]-NH2)",solubility,[1],≥ 10000 µM and ≥ 10000 µg/mL
same,inhibition at 200 µM,"[2]; 200 μM Peptide X, Aβ fragment in 50 mM sodium acetate pH 5.0, 25° C., 20 minutes, FIG. 5",> 60%
same,disaggregation of preformed amyloid fibrils,[2]; Peptide X added to the Aβ peptide fragment after incubation,able to disaggregate preformed amyloid fibrils
same,reduction in Alzheimer's Aβ peptide aggregation,"[2]; Peptide X concentration of 100 mM (so in the source), FIG. 5",50%
same,inhibition of aggregation of Aβ peptide fragment into amyloid fibrils by electron microscopy,[3],almost completely inhibited aggregation; also recorded: substantial elimination of aggregation
